Test results reported in publication PMC9036659, “Boron-containing capsaicinoids” (RSC Advances, 2021).
≈ marks a conversion by molar mass, not a printed value. Where two headings read alike, the source gives them in different places. Marks after values point to notes of the source that are not given here.

Assays:
MRSA = system: MRSA; set-up: method as in doi:10.1139/cjc-2018-0193; details: data collected in previous study; Inactive = inhibition above 400 μM; cited from earlier work
[1] = system: vancomycin-resistant Enterococcus; set-up: method as in doi:10.1139/cjc-2018-0193; details: data collected in previous study; Inactive = inhibition above 400 μM; cited from earlier work
[2] = system: methicillin-resistant Staphylococcus aureus MRSA 310; experiment: Antimicrobial assay, MRSA (PrestoBlue fluorescence); assay type: cell-based; details: for IC50 / MIC90: Staphylococcus aureus, MRSA; for IC50 / MIC90 / MRSA MIC90: 22 h; for IC50: read-out: MRSA IC50; for MIC90: read-out: MRSA MIC90
Description: (§1) The microorganisms (methicillin-resistant S. aureus MRSA 310, vancomycin-resistant E. faecium VRE 379, S. warneri (ATCC 17917), P. vulgaris (ATCC 12454), P. aeruginosa (ATCC 14210), and C. albicans (ATCC 14035)) were grown overnight on agar media. The following day the cultures were transferred into 0.9% saline water into a sterile glass tube. Using the McFarland reader, the turbidity was determined and further diluted into their respective media. The pure compounds were tested at seven different concentrations ranging from 2 to 128 μg mL^−1 in triplicate. Samples were plated into 96 well plates (10 μL in 20% DMSO) and then diluted pathogen (90 μL) was pipetted into the pre-prepared sample plates yielding 5 × 10^5 cfu mL^−1 with a final volume of 100 μL. Antibiotics that are active against specific pathogens were used as positive controls. The plates were incubated into a 37 °C incubator for 22 h. Growth of S. warneri. P. vulgaris, P. aeruginosa and C. albicans were measured by reading optical density (OD600), or in the case of slow growing microorganisms (MRSA and VRE), PrestoBlue was used to assess metabolic activity by measuring fluorescence (535–560)/(590–615) (excitation/emission) using a Thermo Scientific Varioskan Flash plate reader at time zero and then again after incubation of the plates for 22 h at 37 °C. After subtracting the time zero OD600 from the final reading, the percentages of microorganism survival relative to vehicle control wells were calculated. […]
(§2) Antimicrobial Assay Data Growth of S. warneri. P. vulgaris, P. aeruginosa and C. albicans were measured by reading optical density (OD600), or in the case of slow growing microorganisms (MRSA and VRE), PrestoBlue was used to assess metabolic activity by measuring fluorescence (535-560)⁄(590-615) (excitation/emission) using a Thermo Scientific Varioskan Flash plate reader at time zero and then again after incubation of the plates for 22 h at 37 °C. After subtracting the time zero OD600 from the final reading, the percentages of microorganism survival relative to vehicle control wells were calculated. […]

[3] = system: vancomycin-resistant Enterococcus faecium VRE 379; experiment: Antimicrobial assay, VRE (PrestoBlue fluorescence); assay type: cell-based; details: for MIC90 / IC50 / VRE MIC90 / VRE IC50: 22 h, 37 °C, Inactive = inhibition above 300 μM; for IC50 / VRE IC50: average ± SD
Description: as §1, §2

[4] = system: Staphylococcus warneri (ATCC 17917); experiment: Antimicrobial assay, S. warneri (OD600); assay type: cell-based; details: for MIC90 / IC50: Staphylococcus warneri; for MIC90: read-out: S. warneri MIC90; for IC50: read-out: S. warneri IC50
Description: as §1, §2

[5] = system: green monkey kidney cells Vero (ATCC CCL-81); experiment: Cytotoxicity assay (Alamar blue), Vero; assay type: cell-based; details: for IC50 Vero (normal cell line) / IC50: 24 h incubation, average ± SD, Inactive = inhibition above 300 μM; for IC50: Chlorocebus sabaeus, Vero, read-out: IC50 Vero (normal cell line)
Description: (§3) The cells (human foreskin BJ fibroblast cells (ATCC CRL-2522), green monkey kidney cells Vero (ATCC CCL-81), human breast adenocarcinoma cells (ATCC HTB-26 MDA-MB 231), human breast adenocarcinoma cells (MCF7 ATCC HTB-22), and human colorectal carcinoma cells (HCT116 ATCC CCL-247)) were grown to 80% confluency, the cells were counted, diluted, and plated into treated 96-well cell culture plates. The BJ fibroblast and Vero cells were plated at a cell density of 10 000 cells per well and the HTB26, HCT116 and MCF7 cells were plated at cell density of 5000 cells per well in 90 μL of respective growth medium (without the addition of antibiotics) and incubated for 24 h to allow cells to adhere to the plates before treatment. Pure compounds were tested in triplicate in serial dilutions of seven concentrations ranging from 2 to 128 μg mL^−1 per well (final well volume of 100 μL, 1% DMSO per well). Each of the cell lines were incubated at 37 °C in a humidified atmosphere of 5% CO2; the BJ fibroblast and Vero cells for 24 h and the HTB-26, HCT116 and MCF7 cells for 72 h. Each plate contained four uninoculated positive controls, four untreated negative controls, and one column containing a concentration range for doxorubicin. Alamar blue was added, 24 h after the treatment, and fluorescence was monitored using a Cytation Gen 5 plate reader using 560 nm Ex/590 Em both at time zero and 4 h after Alamar blue addition. The inferred percentage of cell viability relative to vehicle control wells were calculated after subtracting the time zero emission 590 nm measurement from the final reading and the IC50 was determined. […]
(§4) Cytotoxicity Assay Data Alamar blue was added, 24 h after the treatment, and fluorescence was monitored using a Cytation Gen 5 plate reader using 560 nm Ex/590 Em both at time zero and 4 h after Alamar blue addition. The inferred percentage of cell viability relative to vehicle control wells were calculated after subtracting the time zero emission 590 nm measurement from the final reading and the IC50 was determined.

[6] = system: human foreskin BJ fibroblast cells (ATCC CRL-2522); experiment: Cytotoxicity assay (Alamar blue), BJ; assay type: cell-based; details: for IC50 BJ (normal cell line) / IC50: 24 h incubation, average ± SD, Inactive = inhibition above 300 μM; for IC50: Homo sapiens, Fibroblast, read-out: IC50 BJ (normal cell line)
Description: as §3, §4

[7] = system: human colorectal carcinoma cells (HCT116 ATCC CCL-247); experiment: Cytotoxicity assay (Alamar blue), HCT116; assay type: cell-based; details: for IC50: Homo sapiens, HCT-116, 72 h incubation, average ± SD, Inactive = inhibition above 300 μM, read-out: IC50 HCT (cancer cell line)
Description: as §3, §4

[8] = system: human breast adenocarcinoma cells (ATCC HTB-26 MDA-MB 231); experiment: Cytotoxicity assay (Alamar blue), HTB-26; assay type: cell-based; details: for IC50: Homo sapiens, HTB26, 72 h incubation, average ± SD, Inactive = inhibition above 300 μM, read-out: IC50 HTB (cancer cell line)
Description: as §3, §4

[9] = system: human breast adenocarcinoma cells (MCF7 ATCC HTB-22); experiment: Cytotoxicity assay (Alamar blue), MCF7; assay type: cell-based; details: for IC50: Homo sapiens, MCF7, 72 h incubation, average ± SD, Inactive = inhibition above 300 μM, read-out: IC50 MCF7 (cancer cell line)
Description: as §3, §4

[10] = 37 °C, average ± SD, Inactive = inhibition above 300 μM
[11] = 37 °C, concentration for 90% growth inhibition, Inactive = inhibition above 300 μM
[12] = ATCC17917, 22 h, 37 °C, Inactive = inhibition above 300 μM
[13] = ATCC17917, 22 h, 37 °C, average ± SD, Inactive = inhibition above 300 μM
[14] = 22 h, 37 °C, Inactive = inhibition above 300 μM
[15] = 22 h, 37 °C, average ± SD, Inactive = inhibition above 300 μM

SMILES | antimicrobial activity against MRSA (in words) [2] | IC50 [2, 10] | cytotoxic activity against HCT116 (in words) [7] | IC50 [7] | cytotoxic activity against HTB-26 MDA-MB 231 (in words) [8] | IC50 [8] | cytotoxic activity against MCF7 (in words) [9] | IC50 [9] | VRE MIC90 [3] | VRE IC50 [3] | IC50 [5] | IC50 [6] | MRSA MIC90 [2, 11] | further results
COc1cc(CNC(=O)CCCC/C=C/C(C)C)ccc1O [Capsaicin] | – | – | – | – | – | – | – | – | – | – | – | – | – | MRSA IC50 (MRSA): Inactive; MRSA MIC90 (MRSA): Inactive; VRE IC50 [1]: Inactive; VRE MIC90 [1]: Inactive
COc1cc(CNC(=O)CCCCB2OC(C)(C)C(C)(C)O2)ccc1OCc1ccccc1 [Compound 8a] | – | – | – | – | – | – | – | – | – | – | – | – | – | IC50 (MRSA): 107 µM; MRSA MIC90 (MRSA): Inactive; VRE IC50 [1]: Inactive; VRE MIC90 [1]: Inactive
CCCCCC(=O)N(Cc1ccc(OC)c(OC)c1)c1cccc(B2OC(C)(C)C(C)(C)O2)c1 [Compound 25, N-(3,4-dimethoxyphenylmethyl)-N-[3-(4,4,5,5-tetramethyl-1,3,2-dioxaborolan-2-yl)phenyl]-hexanamide] | moderate activity | 70.6 ± 6.6 µM | selective but low to moderate activity | 137 ± 12 µM | selective but low to moderate activity | 76.1 ± 3.4 µM | selective but low to moderate activity | 118 ± 19.5 µM | – | – | – | – | – | MIC90 [2, 11]: 137 µM (≈ 64 µg/mL); antimicrobial activity against VRE (in words) [3]: moderate activity; MIC90 [3]: 274 µM (≈ 128 µg/mL); IC50 [3]: 91.6 ± 6.8 µM; antimicrobial activity against S. warneri (in words) [4]: moderate activity; MIC90 [4, 12]: 137 µM (≈ 64 µg/mL); IC50 [4, 13]: 78.3 ± 39.8 µM; IC50 Vero (normal cell line) [5]: Inactive; IC50 BJ (normal cell line) [6]: Inactive
CCCCCCCCCC(=O)N(Cc1ccc(OC)c(OC)c1)c1cccc(B2OC(C)(C)C(C)(C)O2)c1 [Compound 26, N-(3,4-dimethoxyphenylmethyl)-N-[3-(4,4,5,5-tetramethyl-1,3,2-dioxaborolan-2-yl)phenyl]-decanamide] | selectively active | 13.2 µM | unselective cytotoxic effects | 44.3 ± 10.5 µM | unselective cytotoxic effects | 31.5 ± 2.7 µM | unselective cytotoxic effects | 35.7 ± 16.2 µM | Inactive | Inactive | 47.2 ± 6.7 µM | 38.6 ± 1 µM | – | MIC90 [2, 11]: 15.3 µM (≈ 8.01 µg/mL); S. warneri MIC90 [4, 14]: Inactive; S. warneri IC50 [4, 15]: Inactive; cytotoxic activity against Vero (in words) [5]: unselective cytotoxic effects; cytotoxic activity against BJ (in words) [6]: unselective cytotoxic effects
COc1ccc(CN(C(=O)CCCCB2OC(C)(C)C(C)(C)O2)c2ccccc2)cc1OC [Compound 31, N-(3,4-dimethoxybenzyl)-N-phenyl-5-(4,4,5,5-tetramethyl-1,3,2-dioxaborolan-2-yl)pentanamide] | low activity | 121 ± 2 µM | selective but low to moderate activity | 126 ± 16.5 µM | selective but low to moderate activity | 58 ± 3.5 µM | selective but low to moderate activity | 108 ± 30.9 µM | Inactive | Inactive | – | – | Inactive | antimicrobial activity against S. warneri (in words) [4]: low activity; MIC90 [4, 12]: 282 µM (≈ 128 µg/mL); IC50 [4, 13]: 135 ± 15.4 µM; IC50 Vero (normal cell line) [5]: Inactive; IC50 BJ (normal cell line) [6]: Inactive
COc1ccc(CN(C(=O)CCCCCCCCB2OC(C)(C)C(C)(C)O2)c2ccccc2)cc1OC [Compound 32, N-(3,4-dimethoxybenzyl)-N-phenyl-9-(4,4,5,5-tetramethyl-1,3,2-dioxaborolan-2-yl)nonamide] | only active against MRSA | 154 ± 37.1 µM | unselective cytotoxic effects | 80.1 ± 3.9 µM | unselective cytotoxic effects | 42.6 ± 1.8 µM | unselective cytotoxic effects | 68.5 ± 15.1 µM | Inactive | Inactive | 77.1 ± 8.4 µM | 112 ± 10 µM | Inactive | S. warneri MIC90 [4, 14]: Inactive; S. warneri IC50 [4, 15]: Inactive; cytotoxic activity against Vero (in words) [5]: unselective cytotoxic effects; cytotoxic activity against BJ (in words) [6]: unselective cytotoxic effects
COc1cccc2c1C(=O)c1c(O)c3c(c(O)c1C2=O)C[C@@](O)(C(=O)CO)C[C@@H]3O[C@H]1C[C@H](N)[C@H](O)[C@H](C)O1 [Doxorubicin, reference compound] | – | – | – | < 0.00012 µM | – | 0.4 ± 0.2 µM | – | 0.2 ± 0.2 µM | – | – | > 14.7 µM | > 14.7 µM | – | –
CO[C@H]1/C=C/O[C@@]2(C)Oc3c(C)c(O)c4c(O)c(c(/C=N/N5CCN(C)CC5)c(O)c4c3C2=O)NC(=O)/C(C)=C\C=C\[C@H](C)[C@H](O)[C@@H](C)[C@@H](O)[C@@H](C)[C@H](OC(C)=O)[C@@H]1C [Rifampicin, reference compound] | – | – | – | – | – | – | – | – | – | – | – | – | – | MIC90 [3]: 2.4 µM (≈ 1.98 µg/mL); IC50 [3]: 1.2 ± 0.1 µM
CN[C@H](CC(C)C)C(=O)N[C@H]1C(=O)N[C@@H](CC(N)=O)C(=O)N[C@H]2C(=O)N[C@H]3C(=O)N[C@H](C(=O)N[C@H](C(=O)O)c4cc(O)cc(O)c4-c4cc3ccc4O)[C@H](O)c3ccc(c(Cl)c3)Oc3cc2cc(c3O[C@@H]2O[C@H](CO)[C@@H](O)[C@H](O)[C@H]2O[C@H]2C[C@](C)(N)[C@H](O)[C@H](C)O2)Oc2ccc(cc2Cl)[C@H]1O [Vancomycin, reference compound] | – | – | – | – | – | – | – | – | – | – | – | – | 1.4^a μM | IC50 [2]: 0.5 ± 0.1 µM; MIC90 [2]: 1.4 µM (≈ 2.03 µg/mL); IC50 ([4]; ATCC17917, 22 h): 0.3 ± 0.1 µM; MIC90 ([4]; ATCC17917, 22 h): 0.3 µM (≈ 0.435 µg/mL)
